Experimental findings from PubChem BioAssay (NCI) are described below.

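Test compounds were applied to cells in 96-well plates for 48 hours at 5 doses. TGI marks complete inhibition of growth.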

Some test systems named below: MDA-MB-231 breast; ACHN renal; MALME-3M melanoma; SW-620 colon; K-562 leukemia; SN12C renal; OVCAR-4 ovarian; HT29 colon; RXF 393 renal; T-47D breast.
What all share (experiment): NCI-60 cell line screen, 48 h

As to `CN(C)c1cccc2c1C(=O)C=CC21CCc2ccc(N(C)C)c3c(N(C)C)ccc1c23` (stereo not given), the TGI in the test with MDA-MB-231 breast turned out to be 31.2 µM; in the test with ACHN renal it was 26.2 µM; in the test with MALME-3M melanoma, 24.4 µM; in the test on SW-620 colon, 35.6 µM; with K-562 leukemia, 24.2 µM; in the test with SN12C renal it was 26.5 µM. The TGI is 83.4 µM in the test on OVCAR-4 ovarian, 27 µM in the test on HT29 colon, 20.8 µM with RXF 393 renal and over 100 µM in the test with T-47D breast.

As to `Cc1cccc2c(N)c3cccc(C(=O)NCC[N+]4(Cc5ccc([N+](=O)[O-])cc5)CCOCC4)c3nc12`, the TGI with MDA-MB-231 breast was over 86.2 µM; in the test on ACHN renal it was over 100 µM; in the test with MALME-3M melanoma it was over 100 µM; with SW-620 colon, over 100 µM; in the test with K-562 leukemia, over 100 µM; with SN12C renal it was over 100 µM. The TGI in the test on OVCAR-4 ovarian is over 100 µM; with HT29 colon it was over 100 µM; in the test with RXF 393 renal, over 100 µM; with T-47D breast, 98.3 µM.

As to `COC(=O)[C@@H]1CC(C(CN)c2cn(C(=O)OC(C)(C)C)c3ccccc23)C(=O)N1C(=O)OC(C)(C)C` (stereo not given in full), the TGI in the test on MDA-MB-231 breast is 58.6 µM; with ACHN renal, over 100 µM; with MALME-3M melanoma it was 54.1 µM; in the test on SW-620 colon it was over 100 µM; in the test with K-562 leukemia, 48.4 µM; with SN12C renal, 32.9 µM. Besides, the TGI with OVCAR-4 ovarian is 66.6 µM; with HT29 colon, 55.2 µM; in the test on RXF 393 renal, 46.2 µM; with T-47D breast it was over 100 µM.

As to `CSc1c(CC(=O)Nc2ccc(Cl)cc2)n(Cc2ccccc2)c2ccccc12`, the TGI with MDA-MB-231 breast is 39.3 µM; in the test with ACHN renal it was over 100 µM; in the test on MALME-3M melanoma it was over 100 µM; with SW-620 colon, over 100 µM; in the test on K-562 leukemia, over 100 µM; in the test with SN12C renal it was over 100 µM. In addition, the TGI in the test with OVCAR-4 ovarian was 35.5 µM; with HT29 colon, over 100 µM; in the test with RXF 393 renal it was 30.1 µM; in the test with T-47D breast, over 100 µM.

Consider `CCn1c(=O)c2nc(SC)sc2n(-c2ccccc2)c1=O`, for which the TGI with MDA-MB-231 breast, in the test on ACHN renal, in the test on MALME-3M melanoma, with SW-620 colon, in the test with K-562 leukemia and with SN12C renal was over 100 µM in each case. In addition, the TGI in the test with OVCAR-4 ovarian, with HT29 colon, with RXF 393 renal and in the test on T-47D breast was over 100 µM throughout.

For `CC/C=C/C[C@H](O)[C@H]1C[C@H]2O[C@H](CC(=O)OC)C[C@H]2O1`, the TGI in the test with MDA-MB-231 breast, in the test on ACHN renal, in the test with MALME-3M melanoma, with SW-620 colon, in the test with K-562 leukemia and with SN12C renal was over 100 µM throughout. Besides, the TGI in the test on OVCAR-4 ovarian, in the test with HT29 colon, in the test with RXF 393 renal and in the test on T-47D breast was over 100 µM each time.

In the case of `CCN(CC)c1ccc2cc(C(=O)Nc3ccc(C)cc3)c(=N)oc2c1`, the TGI with MDA-MB-231 breast, in the test with ACHN renal, in the test on MALME-3M melanoma, with SW-620 colon, in the test with K-562 leukemia and with SN12C renal was over 100 µM in each case. The TGI in the test on OVCAR-4 ovarian, in the test on HT29 colon, with RXF 393 renal and with T-47D breast was over 100 µM in each case.

As for `O=S(=O)(O)c1ccc2c(N=Nc3ccc(Cl)cc3)c(O)ccc2c1`, the TGI with MDA-MB-231 breast, in the test on ACHN renal, in the test on MALME-3M melanoma, with SW-620 colon, in the test on K-562 leukemia and in the test on SN12C renal was over 100 µM in each case. The TGI with OVCAR-4 ovarian, in the test with HT29 colon, in the test with RXF 393 renal and in the test on T-47D breast was over 100 µM each time.

For `C=CCN(c1cc(OC)c2[nH]c(C(=O)OCC)c(C)c2c1[N+](=O)[O-])S(C)(=O)=O`, the TGI in the test on MDA-MB-231 breast is 33.7 µM; in the test on ACHN renal, 69.5 µM; with MALME-3M melanoma, 60.8 µM; with SW-620 colon, over 100 µM; in the test with K-562 leukemia, 31.4 µM; in the test on SN12C renal it was 56.1 µM. The TGI with OVCAR-4 ovarian is over 100 µM; in the test with HT29 colon, 35.5 µM; in the test on RXF 393 renal, 45.9 µM; in the test on T-47D breast it was 48.6 µM.

`CCn1c2ccccc2c2ccc(C3C(C(=O)OC)=C(C)NC(C)=C3C(=O)OC)cc21`: the TGI with MDA-MB-231 breast is over 100 µM; in the test on ACHN renal, over 100 µM; in the test with MALME-3M melanoma, 60.1 µM; in the test on SW-620 colon it was over 100 µM; in the test on K-562 leukemia, over 100 µM; in the test on SN12C renal, over 100 µM. Also, the TGI in the test with OVCAR-4 ovarian was over 100 µM; with HT29 colon, over 100 µM; in the test with RXF 393 renal, 49.4 µM; in the test on T-47D breast, over 100 µM.

With `O=C(Nc1cccc2ccccc12)c1ccccc1`, the TGI in the test on MDA-MB-231 breast, with ACHN renal, with MALME-3M melanoma, with SW-620 colon, in the test on K-562 leukemia and with SN12C renal was over 100 µM throughout. Further, the TGI was over 100 µM in the test on OVCAR-4 ovarian, over 100 µM in the test with HT29 colon, over 100 µM in the test with RXF 393 renal and 81.6 µM with T-47D breast.

In the case of `Cc1ccc(O)c(C2=CC(c3cccc(Br)c3)SC(N)=N2)c1` (stereo not given), the TGI with MDA-MB-231 breast is 64 µM; with ACHN renal, 52.2 µM; in the test on MALME-3M melanoma, 78.9 µM; in the test with SW-620 colon it was over 100 µM; with K-562 leukemia, 83.2 µM; in the test on SN12C renal, 40.7 µM. For the same compound, the TGI was over 100 µM in the test with OVCAR-4 ovarian, over 100 µM with HT29 colon, 47.1 µM in the test with RXF 393 renal and 87.9 µM with T-47D breast.

In the case of `COc1cc2ccc1OCc1cccc(n1)COc1ccc(cc1OC)C=NCCNCCNCCN=C2`, the TGI with MDA-MB-231 breast, in the test on ACHN renal, with MALME-3M melanoma, in the test on SW-620 colon, in the test with K-562 leukemia and in the test on SN12C renal was over 100 µM in each case. For the same compound, the TGI in the test on OVCAR-4 ovarian, in the test on HT29 colon, in the test on RXF 393 renal and with T-47D breast was over 100 µM throughout.

As to `COc1ccc2c3c1OC1C34CCN(C)C(C2)C4=CC(I)C1(OC)OC` (stereo not given), the TGI with MDA-MB-231 breast was 36 µM; in the test with ACHN renal it was 23.4 µM; in the test on MALME-3M melanoma, 21.9 µM; in the test with SW-620 colon it was 20.1 µM; in the test with K-562 leukemia, 23.4 µM; in the test with SN12C renal, 18.9 µM. Further, the TGI in the test on OVCAR-4 ovarian worked out at 30 µM; with HT29 colon, 22 µM; with RXF 393 renal, 23.1 µM; with T-47D breast, 48.8 µM.
